Tests used:
Assay type in all cases: cell-based
[1] = tested on: PRMT5 (SDMA) in HAP1 MTAP-intact cell line; assay: SDMA in-cell western assay, HAP1 MTAP-intact cell line; conditions: Homo sapiens, HAP1 MTAP-intact cell line (endogenous MTAP), read-out: Hap 1 MTAP intact IC50
Source text: (§1) HAP1 MTAP-intact is a cell line in which endogenous levels of MTAP are expressed, and HAP1 MTAP-deleted is an MTAP-null cell line.

[2] = tested on: HAP1 MTAP-deleted cell line; assay: viability assay for the MTAP-deleted cell line; conditions: Homo sapiens
[3] = tested on: PRMT5 (SDMA) in HAP1 MTAP-deleted cell line; assay: SDMA in-cell western assay, HAP1 MTAP-deleted cell line; conditions: for IC50 / IC90: Homo sapiens, SDMA in-cell western, HAP1 MTAP-deleted (MTAP-null) cell line; for Hap1 MTAP intact/deleted ratio: ratio of SDMA in-cell western IC50 in HAP1 MTAP-intact to IC50 in HAP1 MTAP-deleted cell line
Source text: as §1

SMILES | IC50 [1] [nM] | IC50 [3] [nM] | IC90 [3] [nM] | IC50 [2] [nM] | Hap1 MTAP intact/deleted ratio [3]
Cc1cc(NC(=O)C(=O)N2C[C@@H](C)N(C(=O)C3(C(F)(F)F)CC3)C[C@@H]2c2cccc(C(F)(F)F)c2)cnc1N [Compound 137, N-(6-amino-5-methylpyridin-3-yl)-2-((2S,5R)-5-methyl-4-(1-(trifluoromethyl)cyclopropanecarbonyl)-2-(3-(trifluoromethyl)phenyl)piperazin-1-yl)-2-oxoacetamide] | > 50 | 5 to 50 | > 125 | < 100 | B (an IC50 ratio greater than or equal to 15 fold but lower than 30 fold)
C[C@@H]1CN(C(=O)C(=O)Nc2cncc3cn[nH]c23)[C@@H](c2ccccc2)CN1C(=O)C1(C(F)(F)F)CC1 [Compound 100, 2-((2S,5R)-5-methyl-2-phenyl-4-(1-(trifluoromethyl)cyclopropanecarbonyl)piperazin-1-yl)-2-oxo-N-(1H-pyrazolo[4,3-c]pyridin-7-yl)acetamide] | > 50 | 5 to 50 | > 125 | < 100 | C (an IC50 ratio of less than 15 fold)
Cc1cc(NC(=O)C(=O)N2C[C@@H](C)N(C(=O)C3(C(F)(F)F)CC3)C[C@@H]2c2ccccc2)cnc1N [Compound 78, N-(6-amino-5-methylpyridin-3-yl)-2-((2S,5R)-5-methyl-2-phenyl-4-(1-(trifluoromethyl)cyclopropanecarbonyl)piperazin-1-yl)-2-oxoacetamide] | > 50 | 5 to 50 | > 125 | < 100 | B (an IC50 ratio greater than or equal to 15 fold but lower than 30 fold)
CC(C)C(=O)N1C[C@@H](c2ccc(F)c(F)c2)N(C(=O)C(=O)Nc2cnc(N)c(C3CC3)c2)C[C@H]1C [Compound 160, N-(6-amino-5-cyclopropylpyridin-3-yl)-2-((5R)-2-(3,4-difluorophenyl)-4-isobutyryl-5-methylpiperazin-1-yl)-2-oxoacetamide] | > 50 | > 50 | > 125 | > 1000 | C (an IC50 ratio of less than 15 fold)
C[C@@H]1CN(C(=O)C(=O)Nc2cnc(N)c(C3COC3)c2)[C@@H](c2ccc(F)cc2)CN1C(=O)C1(C(F)(F)F)CC1 [Compound 72, N-(6-amino-5-(oxetan-3-yl)pyridin-3-yl)-2-((2S,5R)-2-(4-fluorophenyl)-5-methyl-4-(1-(trifluoromethyl)cyclopropanecarbonyl)piperazin-1-yl)-2-oxoacetamide] | > 50 | 5 to 50 | 75 to 125 | < 100 | A (an IC50 ratio greater than or equal to 30 fold)
C[C@@H]1CN(C(=O)C(=O)Nc2cnc(N)c3cn[nH]c23)[C@@H](c2ccccc2)CN1C1(C)CC1 (racemic) [Compound 167, N-(4-Amino-1H-pyrazolo[4,3-c]pyridin-7-yl)-2-oxo-2-[rac-(2S,5R)-5-methyl-4-(1-methylcyclopropyl)-2-phenyl-piperazin-1-yl]acetamide] | > 50 | < 5 |  | < 100 | A (an IC50 ratio greater than or equal to 30 fold)
C[C@@H]1CN(C(=O)C(=O)Nc2cncc3cn[nH]c23)[C@@H](c2ccccc2)CN1C(=O)C1(C)CC1 [Compound 91, 2-((2S,5R)-5-methyl-4-(1-methylcyclopropanecarbonyl)-2-phenylpiperazin-1-yl)-2-oxo-N-(1H-pyrazolo[4,3-c]pyridin-7-yl)acetamide] | > 50 | 5 to 50 | > 125 | < 100 | B (an IC50 ratio greater than or equal to 15 fold but lower than 30 fold)
C[C@@H]1CN(C(=O)C(=O)Nc2cncc3cn[nH]c23)[C@@H](c2ccccc2)CN1C(=O)C(C)(C)CN(C)C [Compound 68, 2-((2S,5R)-4-(3-(dimethylamino)-2,2-dimethylpropanoyl)-5-methyl-2-phenylpiperazin-1-yl)-2-oxo-N-(1H-pyrazolo[4,3-c]pyridin-7-yl)acetamide] | > 50 | 5 to 50 | 75 to 125 | 100 to 1000 | A (an IC50 ratio greater than or equal to 30 fold)
Cc1cc(NC(=O)C(=O)N2C[C@@H](C)N(C(=O)OC(C)(C)C)C[C@@H]2c2ccc(F)cc2)cnc1N [Compound 101] | > 50 | < 5 | < 75 | < 100 | B (an IC50 ratio greater than or equal to 15 fold but lower than 30 fold)

More lines, main results first:

IC50 [1] [nM] | IC50 [3] [nM] | IC90 [3] [nM] | SMILES | IC50 [2] [nM] | Hap1 MTAP intact/deleted ratio [3]
> 50 | < 5 | < 75 | Cc1cc(NC(=O)C(=O)N2C[C@@H](C)N(C(=O)C3(C(F)(F)F)CC3)C[C@@H]2c2ccc(F)c(Cl)c2)cnc1N [Compound 29, N-(6-amino-5-methylpyridin-3-yl)-2-((2S,5R)-2-(3-chloro-4-fluorophenyl)-5-methyl-4-(1-(trifluoromethyl)cyclopropanecarbonyl)piperazin-1-yl)-2-oxoacetamide] | < 100 | B (an IC50 ratio greater than or equal to 15 fold but lower than 30 fold)
5 to 50 | < 5 |  | C[C@@H]1CN(C(=O)C(=O)Nc2cnc(N)c3cn[nH]c23)[C@@H](c2ccccc2)CN1C1CC1 (racemic) [Compound 170, N-(4-Amino-1H-pyrazolo[4,3-c]pyridin-7-yl)-2-oxo-2-[rac-(2S,5R)-4-cyclopropyl-5-methyl-2-phenyl-piperazin-1-yl]acetamide] | < 100 | C (an IC50 ratio of less than 15 fold)
> 50 | > 50 | > 125 | Cc1cc(NC(=O)C(=O)N2C[C@@H](C)N(CC(C)C)C[C@@H]2c2ccc(F)cc2)cnc1N [Compound 154, N-(6-amino-5-methyl-3-pyridyl)-2-[(2S,5R)-2-(4-fluorophenyl)-4-isobutyl-5-methyl-piperazin-1-yl]-2-oxo-acetamide] | > 1000 | C (an IC50 ratio of less than 15 fold)
> 50 | 5 to 50 | < 75 | Cc1cc(NC(=O)C(=O)N2C[C@@H](C)N(C(=O)C(C)(C)CN(C)C)C[C@@H]2c2ccccc2)cnc1N [Compound 13] | < 100 | C (an IC50 ratio of less than 15 fold)
> 50 | 5 to 50 | > 125 | CC(C)C(=O)N1C[C@H](c2cccc(N3CCN(C)CC3)c2)N(C(=O)C(=O)Nc2cncc3cn[nH]c23)C[C@H]1C [Compound 113, 2-((2S,5R)-4-isobutyryl-5-methyl-2-(3-(4-methylpiperazin-1-yl)phenyl)piperazin-1-yl)-2-oxo-N-(1H-pyrazolo[4,3-c]pyridin-7-yl)acetamide] | < 100 | C (an IC50 ratio of less than 15 fold)
> 50 | 5 to 50 | 75 to 125 | C[C@@H]1CN(C(=O)C(=O)Nc2cncc3[nH]ncc23)[C@@H](c2ccccc2)CN1C(=O)C(C)(C)C [Compound 55, 2-((2S,5R)-5-methyl-2-phenyl-4-pivaloylpiperazin-1-yl)-2-oxo-N-(1H-pyrazolo[3,4-c]pyridin-4-yl)acetamide] | < 100 | C (an IC50 ratio of less than 15 fold)
> 50 | 5 to 50 | 75 to 125 | Cc1cc(NC(=O)C(=O)N2C[C@@H](C)N(C(=O)OC(C)(C)C)C[C@@H]2c2ccc(F)c(F)c2)cnc1N [Compound 21] | 100 to 1000 | C (an IC50 ratio of less than 15 fold)
> 50 | 5 to 50 | > 125 | C[C@@H]1CN(C(=O)C(=O)Nc2cncc3cn[nH]c23)[C@@H](c2ccc(F)cc2)CN1C(=O)OC(C)(C)C [Compound 129, (2R,5S)-tert-butyl 4-(2-((1H-pyrazolo[4,3-c]pyridin-7-yl)amino)-2-oxoacetyl)-5-(4-fluorophenyl)-2-methylpiperazine-1-carboxylate] | 100 to 1000 | A (an IC50 ratio greater than or equal to 30 fold)
5 to 50 | < 5 | 75 to 125 | Cc1cc(NC(=O)C(=O)N2C[C@@H](C)N(C(=O)C3(C(F)(F)F)CC3)C[C@@H]2c2cccs2)cnc1N [Compound 111, N-(6-amino-5-methyl-3-pyridyl)-2-[(2R,5R)-5-methyl-2-(2-thienyl)-4-[1-(trifluoromethyl)cyclopropanecarbonyl]piperazin-1-yl]-2-oxo-acetamide] | < 100 | C (an IC50 ratio of less than 15 fold)
5 to 50 | 5 to 50 | < 75 | Cc1cc(NC(=O)C(=O)N2C[C@@H](C)N(C(=O)C(C)C)C[C@@H]2c2cccc(N3CCN(C)CC3)c2)cnc1N [Compound 117, N-(6-amino-5-methylpyridin-3-yl)-2-((2S,5R)-4-isobutyryl-5-methyl-2-(3-(4-methylpiperazin-1-yl)phenyl)piperazin-1-yl)-2-oxoacetamide] | < 100 | C (an IC50 ratio of less than 15 fold)
5 to 50 | < 5 | < 75 | C[C@@H]1CN(C(=O)C(=O)Nc2cnc(N)c(C3CC3)c2)[C@@H](c2ccc(F)cc2)CN1C(=O)C1(C)CC1 [Compound 8, N-(6-amino-5-cyclopropylpyridin-3-yl)-2-((2S,5R)-2-(4-fluorophenyl)-5-methyl-4-(1-methylcyclopropanecarbonyl)piperazin-1-yl)-2-oxoacetamide] | < 100 | C (an IC50 ratio of less than 15 fold)
